“Also recorded” adds a separate entry of the source. Like-named read-outs stand apart in the source and are kept apart here.

Data set [1] deals with TNF production in human peripheral blood leucocytes (HPBL). The format is cell-based. As to the method: Partially purified buffy coats were purchased from Auckland Blood Centre and divided into 15-ml, aliquots in 50-ml centrifuge tubes (2070 Conical Tubes, Becton Dickinson Labware, N.J., USA). HPBL in tissue culture dishes (10 ml; 10^7 cells/ml) were incubated overnight in α-MEM culture medium supplemented with FCS (10% v/v), streptomycin sulphate (100 μg/ml) and penicillin-G (100 units/ml). All extraction operations were carried out at 7° C. to prevent clotting. Unsupplemented α-MEM medium was added to 30 ml and a 10-ml layer of Ficoll-Paque PLUS was slowly added to the bottom of the tubes. After centrifugation at 300 g for 30 min the upper layer was removed and the HPBL layer was carefully drawn off into a fresh 50-ml centrifuge tube. The volume was adjusted to 50 ml, the cells were centrifuged at 300 g, and HPBL were resuspended in supplemented α-MEM medium and added (1 ml/well) to 24 well plates (Nunc, Kamstrup, Roskilde, Denmark). Agents (made up at twice the final concentration) were added and plates were incubated for the appropriate times in 5% CO2air at 37° C. overnight. DMXAA sodium salt (this laboratory) was dissolved in medium and protected from light FAA (National Cancer Institute, USA) was dissolved in 5% (w/v) sodium bicarbonate and diluted with medium. Interleukin-laipha (R&D Systems, USA), okadaic acid, LPS and deacylated LPS (Sigma Chemical Co., USA) were dissolved in α-MEM, filter-sterilised and used immediately. The MEM-18 mouse anti-human CD14 IgG antibody was obtained from Sanbio bv, am Uden, Netherlands, and was freed from azide before use by ultrafiltration.
After the appropriate incubation period of HPBL with drug, supernatants were either used immediately or stored at −20° C. TNF standards were prepared by making serial dilutions of the TNF stock solution in supplemented culture media (concentration range 10-10,000 pg/ml). ELISA plates were made using the OptEIA Human TNF-alpha Set (Pharmingen, San Diego, Calif., USA). TNF standards and samples were added to the ELISA plates and the assays were carried out according to the makers' directions.

In data set [2] the test system is serum TNF in C57BL mice. Description: In vivo serum TNF in mice with or without antibiotic pre-treatment. More on the design: species or system mouse. The protocol:
To test the hypothesis that low concentrations of LPS synergise with DMXAA for in vivo TNF production, mice were treated orally with antibiotics for […] and then treated with 25 mg/kg DMXAA. TNF levels were measured […]. C57BL mice were either untreated, or treated for 4 days prior to DMXAA with a mixture of antibiotics (cephalocin 2 g/l and neomycin 2 g/l in the drinking water). Mice received a single i.p. dose of DMXAA (25 mg/kg) and blood was collected by cardiac puncture of halothane-anaesthetised mice after 3 hours. Blood from each mouse was transferred to individual microcentrifuge tubes and allowed to clot overnight on ice before centrifugation at 2000×g for 20 minutes at 4° C. If clotting was not complete the sample was allowed to stand on ice for a further 2 hours, after which it was re-centrifuged. Serum was drawn off the top of the blood samples and stored at −20° C. until assay of TNF content. […] ELISA (enzyme-linked immunosorbent assay) plates were made using the OptEIA Human TNF-alpha-Set (Pharmingen, San Diego, Calif., USA). TNF standards and samples were added to the ELISA plates and the assays were carried out according to the manufacturer's directions.

Data set [3] relates to cancer. Conditions: humans; cited from earlier work.
The conditions of data set [4]: cited from earlier work.
Data set [5] has as its system murine tumours. The following applies: cited from earlier work.
Data set [6] relates to TNF production in murine leucocytes. The experiment in a line: TNF production in cultured murine leucocytes in vitro (8 h, ELISA). The format is cell-based, mouse. As to the method: The effect of DMXAA on cultured murine leucocytes has also been investigated using LPS as a control. TNF was measured by enzyme-linked immunosorbent assay after 8 h.
Blood samples for extraction of leucocytes were taken by cardiac puncture of halothane-anaesthetised mice into 1-ml syringes containing ACD-A anticoagulant (0.1 ml). All extraction operations were carried out at 7° C. to prevent clotting. Samples were pooled and unsupplemented α-MEM was added to 30 ml and a 10-ml layer of Ficoll-Paque PLUS™ was slowly added to the bottom of the tubes. After centrifugation at 300×g for 30 min the upper layer was removed and the leucocyte layer was carefully drawn off into a fresh 50-ml centrifuge tube. The volume was adjusted to 50 ml with unsupplemented growth medium, the cells were centrifuged at 300×g, and the leucocytes were resuspended at 10^7 cells/ml in α-MEM supplemented with foetal bovine serum (10% v/v), streptomycin sulphate (100 μg/ml) and penicillin-G (100 units/ml).
Cells were added either to 24 well plates (1 ml/well; Nunc, Kamstrup, Roskilde, Denmark) or to 100 mm Petri dishes (10 ml/plate) and incubated in 5% CO2/air at 37° C. overnight. Agents (made up at twice the final concentration in growth medium) were added and plates were further incubated for 8 hours. After the appropriate incubation period of HPBL with drug in 24-well plates, supernatants were removed and either assayed immediately or stored at −20° C.
TNF standards were prepared by making serial dilutions of the TNF stock solution in supplemented culture media (concentration range 10-10,000 pg/ml). ELISA (enzyme-linked immunosorbent assay) plates were made using the OptEIA Human TNF-alpha-Set (Pharmingen, San Diego, Calif., USA). TNF standards and samples were added to the ELISA plates and the assays were carried out according to the manufacturer's directions.

In the case of `C=C1[C@@H](O)[C@@H]2O[C@]3(CC[C@H](/C=C/[C@@H](C)[C@@H]4CC(C)=C[C@@]5(O[C@H](C[C@@](C)(O)C(=O)O)CC[C@H]5O)O4)O3)CC[C@H]2O[C@@H]1[C@@H](O)C[C@H](C)[C@H]1O[C@@]2(CCCCO2)CC[C@H]1C` [OA, okadaic acid, reference compound], the TNF synthesis result in data set [1] (OA alone at concentrations higher than 20 ng/ml, HPBL) was “induced TNF synthesis”. Further, the TNF induction result in data set [1] (OA alone at concentrations up to 20 ng/ml, HPBL) is “no substantial induction of TNF”.

In the case of `CCCCCCCCCCCCCC(=O)O[C@@H]1[C@@H](C)[C@@]2(O)[C@@H](C=C(CO)C[C@]3(O)C(=O)C(C)=C[C@@H]23)[C@@H]2C(C)(C)[C@]12OC(C)=O` [PMA, phorbol-12-myristate-13-acetate, reference compound], in data set [1] (PMA alone at concentrations higher than 20 ng/ml, HPBL), the TNF synthesis result is reported as “induced TNF synthesis”. In addition, the TNF induction result in data set [1] (PMA alone at concentrations up to 20 ng/ml, HPBL) is “no substantial induction of TNF”.

As for `Cc1ccc2c(=O)c3cccc(CC(=O)O)c3oc2c1C` [DMXAA, 5,6-dimethylxanthenone-4-acetic acid], the “serum TNF” value in data set [2] (DMXAA 25 mg/kg i.p. following antibiotic treatment, versus mice not receiving antibiotics (FIG. 8)) is given as “increased serum TNF but the increase was significantly smaller (p<0.001)”. Also, in data set [2] (DMXAA 25 mg/kg single i.p. dose, mice not receiving antibiotics (FIG. 8)), the “serum TNF concentrations” value was “substantially increased serum TNF concentrations”. The clinical anti-cancer activity result in data set [3] is on record as “marginal clinical anti-cancer activity”. For the same molecule, the TNF production result in data set [1] was “large increase in TNF production; also recorded: induced a higher degree of TNF production”; in data set [6] (DMXAA (800 μg/ml) co-incubated with anti-CD14 antibody (10 μl/well), murine leucocytes (FIG. 7)) it was “high level of TNF production that was even greater than that caused by LPS”; in data set [6] (DMXAA (800 μg/ml) coincubated with dLPS (500 μg/ml), murine leucocytes (FIG. 7)) it was “significant (p<0.001) elevation of TNF production”; in data set [6] (DMXAA alone (800 μg/ml), murine leucocytes, 8 h (FIG. 7)) it was “did not significantly increase TNF production”. For the same molecule, the “induction of TNF by low concentrations of LPS” value in data set [1] (DMXAA added to LPS, peripheral blood monocytes) is given as “unexpectedly stimulated”. Moreover, in data set [1] (DMXAA added to anti-CD14 antibody, peripheral blood monocytes), the “induction of TNF by antibody (MEM-18) to CD14” value is “unexpectedly stimulated”. Moreover, the TNF induction result in data set [1] (DMXAA alone, 800 μg/ml, HPBL) is “no substantial induction of TNF; also recorded: no substantial effect”; in data set [1] (DMXAA alone, cultured HPBL, concentration not given) it was “little effect on TNF induction”. Besides, in data set [1] (DMXAA coadministered with IL-1, HPBL (FIG. 4)), the “increase in induction of TNF compared to IL-1 alone” value is reported as “up to 56 fold”. Also, the water solubility entry in data set [4] is recorded as “highly water soluble”. Besides, in data set [5], the antitumour activity result is on record as “significant antitumour activity”.

B1: IL-1: interleukin-1 alpha, inflammatory cytokine (R&D Systems) (protein, UniProt P01583 113-271, looked up)
Interleukin-1 alpha: SAPFSFLSNVKYNFMRIIKYEFILNDALNQSIIRANDQYLTAAALHNLDEAVKFDMGAYKSSKDDAKITVILRISKTQLYVTAQDEDQPVLLKEMPEIPKTITGSETNLLFFWETHGTKNYFTSVAHPNLFIATKQDYWVCLAGGPPSITDFQILENQA
Take B1: the TNF induction entry in data set [1] (IL-1 alone, HPBL (FIG. 4)) is reported as “capable of inducing TNF”.

These data come from US7510830B2, “Cancer treatment by combination therapy” (Cancer Research Technology Limited, priority 2000, dated 2009).
